From ChEMBL document CHEMBL1201862, “PubChem BioAssay data set” (2004)
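Step 1: Grow cells in 96-well plates. Step 2: Expose to compound for 48 hours at 5 concentrations. Step 3: Interpolate endpoints linearly; if unreached, use highest concentration. At the GI50, growth is halved.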 Calls of active or inactive are those of the source. Rule as the data show it: active = GI50 up to about 1.1 µM and inactive = higher.

Key:
Assay in all cases: NCI anticancer screen, dose series, 48 h
M14 = system: M14
UACC-62 = system: UACC-62
NCI-H23 = system: NCI-H23
A549 = system: A549
HL-60 = system: HL-60
MDA-MB-435 = system: MDA-MB-435
HCT-116 = system: HCT-116
MDA-N = system: MDA-N
RPMI-8226 = system: RPMI-8226
LOX IMVI = system: LOX IMVI
BT-549 = system: BT-549
NCI/ADR-RES = system: NCI/ADR-RES
SK-MEL-2 = system: SK-MEL-2
EKVX = system: EKVX
SNB-19 = system: SNB-19
OVCAR-4 = system: OVCAR-4
OVCAR-5 = system: OVCAR-5
UACC-257 = system: UACC-257
U-251 = system: U-251
NCI-H460 = system: NCI-H460
HCC 2998 = system: HCC 2998
DU-145 = system: DU-145
IGROV-1 = system: IGROV-1
ACHN = system: ACHN
MOLT-4 = system: MOLT-4
TK-10 = system: TK-10
COLO 205 = system: COLO 205
HCT-15 = system: HCT-15
CCRF-CEM = system: CCRF-CEM
NCI-H522 = system: NCI-H522
SK-MEL-28 = system: SK-MEL-28
SW-620 = system: SW-620
MDA-MB-231 = system: MDA-MB-231
RXF 393 = system: RXF 393
OVCAR-8 = system: OVCAR-8
K562 = system: K562
NCI-H226 = system: NCI-H226
SF-295 = system: SF-295
HT-29 = system: HT-29
SR = system: SR
A498 = system: A498
OVCAR-3 = system: OVCAR-3
SN12C = system: SN12C
CAKI-1 = system: CAKI-1
MCF7 = system: MCF7
SK-OV-3 = system: SK-OV-3
KM12 = system: KM12
HOP-92 = system: HOP-92
UO-31 = system: UO-31
Malme-3M = system: Malme-3M
786-0 = system: 786-0
PC-3 = system: PC-3
SK-MEL-5 = system: SK-MEL-5
Hs-578T = system: Hs-578T
HOP-62 = system: HOP-62
SF-539 = system: SF-539
SF-268 = system: SF-268
SNB-75 = system: SNB-75

SMILES: COc1c(O)cc2c3c(ccnc13)NC=C2
- GI50 (M14): > 100 µM (inactive)
- GI50 (UACC-62): > 100 µM (inactive)
- GI50 (NCI-H23): > 100 µM (inactive)
- GI50 (A549): > 100 µM (inactive)
- GI50 (HL-60): 11.4 µM (inactive)
- GI50 (MDA-MB-435): > 100 µM (inactive)
- GI50 (HCT-116): 76.9 µM (inactive)
- GI50 (MDA-N): > 100 µM (inactive)
- GI50 (RPMI-8226): > 100 µM (inactive)
- GI50 (LOX IMVI): 61.1 µM (inactive)
- GI50 (BT-549): > 100 µM (inactive)
- GI50 (NCI/ADR-RES): > 100 µM (inactive)
- GI50 (SK-MEL-2): 57.9 µM (inactive)
- GI50 (EKVX): > 100 µM (inactive)
- GI50 (SNB-19): > 100 µM (inactive)
- GI50 (OVCAR-4): > 100 µM (inactive)
- GI50 (OVCAR-5): > 100 µM (inactive)
- GI50 (UACC-257): > 100 µM (inactive)
- GI50 (U-251): 80.2 µM (inactive)
- GI50 (NCI-H460): > 100 µM (inactive)
- GI50 (HCC 2998): > 100 µM (inactive)
- GI50 (DU-145): > 100 µM (inactive)
- GI50 (IGROV-1): > 100 µM (inactive)
- GI50 (ACHN): 55.7 µM (inactive)
- GI50 (MOLT-4): 3.25 µM (inactive)
- GI50 (TK-10): > 100 µM (inactive)
- GI50 (COLO 205): > 100 µM (inactive)
- GI50 (HCT-15): > 100 µM
- GI50 (CCRF-CEM): 4.78 µM (inactive)
- GI50 (NCI-H522): 1.63 µM (inactive)
- GI50 (SK-MEL-28): > 100 µM (inactive)
- GI50 (SW-620): 68.2 µM (inactive)
- GI50 (MDA-MB-231): 35.6 µM (inactive)
- GI50 (RXF 393): 18.1 µM (inactive)
- GI50 (OVCAR-8): > 100 µM (inactive)
- GI50 (K562): 96.6 µM (inactive)
- GI50 (NCI-H226): > 100 µM (inactive)
- GI50 (SF-295): > 100 µM (inactive)
- GI50 (HT-29): 16.9 µM (inactive)
- GI50 (SR): 17.3 µM (inactive)
- GI50 (A498): > 100 µM (inactive)
- GI50 (OVCAR-3): 12.4 µM (inactive)
- GI50 (SN12C): > 100 µM (inactive)
- GI50 (CAKI-1): > 100 µM (inactive)
- GI50 (MCF7): 26.7 µM (inactive)
- GI50 (SK-OV-3): 83.2 µM (inactive)
- GI50 (KM12): > 100 µM (inactive)
- GI50 (HOP-92): > 100 µM (inactive)
- GI50 (UO-31): 36.8 µM (inactive)
- GI50 (Malme-3M): 85.7 µM (inactive)
- GI50 (786-0): 41.9 µM (inactive)
- GI50 (PC-3): 24.3 µM (inactive)
- GI50 (SK-MEL-5): > 100 µM (inactive)
- GI50 (Hs-578T): > 100 µM (inactive)

SMILES: O=C(Nc1nc(C23CC4CC(CC(C4)C2)C3)cs1)c1c(O)c2ccccc2[nH]c1=O
- GI50 (NCI-H23): > 100 µM (inactive)
- GI50 (A549): > 100 µM (inactive)
- GI50 (HL-60): > 100 µM (inactive)
- GI50 (MDA-MB-435): > 100 µM (inactive)
- GI50 (HCT-116): > 100 µM (inactive)
- GI50 (MDA-N): > 100 µM (inactive)
- GI50 (RPMI-8226): > 100 µM (inactive)
- GI50 (LOX IMVI): > 100 µM (inactive)
- GI50 (HOP-62): > 100 µM (inactive)
- GI50 (SF-539): > 100 µM (inactive)
- GI50 (BT-549): > 100 µM (inactive)
- GI50 (NCI/ADR-RES): > 100 µM (inactive)
- GI50 (EKVX): > 100 µM (inactive)
- GI50 (SNB-19): > 100 µM (inactive)
- GI50 (OVCAR-4): 60.5 µM (inactive)
- GI50 (OVCAR-5): > 100 µM (inactive)
- GI50 (UACC-257): > 100 µM (inactive)
- GI50 (U-251): > 100 µM (inactive)
- GI50 (NCI-H460): > 100 µM (inactive)
- GI50 (HCC 2998): > 100 µM (inactive)
- GI50 (DU-145): > 100 µM (inactive)
- GI50 (IGROV-1): > 100 µM (inactive)
- GI50 (ACHN): > 100 µM (inactive)
- GI50 (MOLT-4): > 100 µM (inactive)
- GI50 (TK-10): > 100 µM (inactive)
- GI50 (COLO 205): > 100 µM (inactive)
- GI50 (HCT-15): > 100 µM
- GI50 (CCRF-CEM): > 100 µM (inactive)
- GI50 (NCI-H522): > 100 µM (inactive)
- GI50 (SK-MEL-28): > 100 µM (inactive)
- GI50 (SW-620): > 100 µM (inactive)
- GI50 (MDA-MB-231): 78.9 µM (inactive)
- GI50 (RXF 393): 53.6 µM (inactive)
- GI50 (OVCAR-8): > 100 µM (inactive)
- GI50 (K562): > 100 µM (inactive)
- GI50 (NCI-H226): > 100 µM (inactive)
- GI50 (SF-295): > 100 µM (inactive)
- GI50 (HT-29): > 100 µM (inactive)
- GI50 (SR): > 100 µM (inactive)
- GI50 (A498): > 100 µM (inactive)
- GI50 (OVCAR-3): > 100 µM (inactive)
- GI50 (SN12C): > 100 µM (inactive)
- GI50 (CAKI-1): > 100 µM (inactive)
- GI50 (MCF7): > 100 µM (inactive)
- GI50 (SF-268): 23.3 µM (inactive)
- GI50 (KM12): > 100 µM (inactive)
- GI50 (HOP-92): > 100 µM (inactive)
- GI50 (UO-31): > 100 µM (inactive)
- GI50 (Malme-3M): > 100 µM (inactive)
- GI50 (SNB-75): > 10 µM (inactive)
- GI50 (786-0): > 100 µM (inactive)
- GI50 (PC-3): > 100 µM (inactive)
- GI50 (SK-MEL-5): > 100 µM (inactive)
- GI50 (Hs-578T): > 100 µM (inactive)
